# Experimental data: patent US20220257557A1, “PHARMACEUTICAL COMPOSITION FOR PREVENTING OR TREATING NEUROLOGICAL DISEASES” (GLACEUM INC., priority 2019, published 2022)
# Columns and labels:
# RAW264.7 cells [1] = experiment: IL-1β, IL-6 and TNF-α mRNA expression after LPS (RT-PCR); type: cell-based; conditions: 3 h pretreatment (Table 3 amounts), LPS 1 μg/ml 6 h
# Procedure: (§1) RAW264.7 cells or BV2 cells (5×10^5 cells/well) were dispensed in DMEM containing 10% heat-inactivated FBS, 10 IU/mL penicillin G, 100 μg/mL streptomycin and 2 mM L-glutamine and cultured in a 5% CO2 incubator at a temperature of 37° C.
# (§2) The compound of Formula III-3, III-4, V-3, III-1, IV-1, V-1, IV-2, V-2 or II-2 was added to the RAW264.7 cells or BV2 cells, and the toxicities of the compounds were determined by MTT assay.
# (§3) The pretreated cells of Experimental Example 4-1 were treated with 1 μg/ml of LPS for 6 hours, and then the mRNA expression level of the cytokine IL-1β, IL-6 or TNF-α produced in the inflammatory response was analyzed using RT-PCR.
# BV2 cells [2] = experiment: as above; type: cell-based; conditions: 3 h pretreatment (Table 3 amounts), LPS 1 μg/ml 6 h
# Procedure: as §1, §2, §3
# RAW264.7 cells [3] = experiment: NO and PGE2 production after LPS; type: cell-based; conditions: 3 h pretreatment (Table 3 amounts), LPS 1 μg/ml 24 h
# Procedure: as §1, §2
# (§4) The pretreated cells of Experimental Example 4-1 were treated with 1 μg/ml of LPS for 24 hours, and then the expression levels of iNOS and COX-2 were observed through Western blot, and the production of NO and PGE2 was measured.
# BV2 cells [4] = experiment: NO and PGE2 production after LPS; type: cell-based; conditions: 3 h pretreatment (Table 3 amounts), LPS 1 μg/ml 24 h
# Procedure: as §1, §2, §4
# RAW264.7 cells [5] = experiment: Transcription of NF-κB protein (p65, p50) into nucleus after LPS (Western blot); type: cell-based; conditions: 3 h pretreatment (Table 3 amounts), LPS 1 μg/ml 1 h
# Procedure: RAW264.7 cells or BV2 cells (5×10^5 cells/well) were dispensed in DMEM containing 10% heat-inactivated FBS, 10 IU/mL penicillin G, 100 μg/mL streptomycin and 2 mM L-glutamine and cultured in a 5% CO2 incubator at a temperature of 37° C. […]
# (§5) The pretreated cells of Experimental Example 4-1 were treated with 1 μg/ml of LPS for 1 hour, and then the level of transcription of NF-κB protein into the nucleus of each of p65 and p50 was analyzed through Western blot.
# [6] = target: T1, rePON1 (PON1, paraoxonase 1) (Homo sapiens, UniProt P27169); experiment: Prevention of inhibition of PON1 activity by oxidized linolenic acid (TBBL substrate); type: biochemical; conditions: for activity at 30 µM: 30 μM compound with rePON1 30 min, then oxidized linolenic acid 2 h, TBBL substrate, normal control 100, negative control 73.64; for extent to which inhibition of rePON1 activity was prevented, compared with glabridin: compound 30 μM vs glabridin 30 μM; for extent to which inhibition of rePON1 activity was prevented, compared with glabridin / inhibition of rePON1 activity by oxidized linolenic acid: result in words; for inhibition of rePON1 activity by oxidized linolenic acid: compound 30 μM
# T1 construct: purchased Thermo Corp. RP-75678
# T1 sequence (P27169 whole entry): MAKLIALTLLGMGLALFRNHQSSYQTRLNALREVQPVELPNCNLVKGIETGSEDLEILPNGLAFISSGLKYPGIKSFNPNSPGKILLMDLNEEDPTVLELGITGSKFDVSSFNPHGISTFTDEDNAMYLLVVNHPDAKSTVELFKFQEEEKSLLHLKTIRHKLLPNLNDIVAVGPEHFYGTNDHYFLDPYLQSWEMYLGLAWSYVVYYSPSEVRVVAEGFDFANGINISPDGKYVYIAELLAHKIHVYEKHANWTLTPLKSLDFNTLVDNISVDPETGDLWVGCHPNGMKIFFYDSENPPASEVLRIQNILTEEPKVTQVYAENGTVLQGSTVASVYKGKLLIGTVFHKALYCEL
# Procedure: Based on the fact that the activity of PON1 is inhibited when PON1 is treated with oxidized linolenic acid, an experiment was conducted to confirm the prevention of inhibition of PON1 activity. The activity of PON1 was measured using TBBL (5-thiobutyl butyrolactones) as a substrate.
# Specifically, after 9.6 μl of 50 mM Tris-HCl containing 1 mM CaCl2 was added to each of […] Eppendorf tubes, 0.2 μl of each of the compounds of Formulas III-1, IV-1, V-1, IV-2, V-2, II-1, IV-3, V-3, III-2, IV-4, V-4, II-2 and III-3 and glabridine was added to each tube so that the concentration thereof was 30 μM. 0.2 μl of rePON1 (RP-75678, Thermo Corp.) was added to each of the 12 tubes and mixed. Thereafter, each of the mixtures was allowed to react at room temperature for 30 minutes, and 0.5 μl of 1 mM oxidized linolenic acid (OX-LA) dissolved in DMSO was added thereto in order to inhibit rePON1 activity, followed by reaction at room temperature for 2 hours, thus preparing solutions (I).
# 25 μl of 0.5 mM DTNB dissolved in 50 mM Tris-HCl containing 1 mM CaCl2 was dispensed into each well of a 384-well plate, and then 10 μl of each of the solutions (I) was dispensed into each well, and 20 μl of 2 mM TBBL dissolved in 50 mM Tris-HCl containing 1 mM CaCl2 was added to each well, thus preparing samples. The absorbance of each of the samples at 420 nm was measured using a spectrometer (SpectraMax M2) at 37° C. every 2 minutes for 1 hour.
# In addition, a negative control was prepared in the same manner as the above-described method, except that, for the preparation of a solution, 0.2 μl of DMSO was added instead of the compounds of Formulas III-1, IV-1, V-1, IV-2, V-2, II-1, IV-3, V-3, III-2, IV-4, V-4, II-2 and III-3 and glabridin. Furthermore, a normal control was prepared in the same manner as the above-described method, except that, for the preparation of a solution, 0.2 μl of DMSO was added instead of the above-described compounds and glabridin and that oxidized linolenic acid was not added. The absorbance of each of the negative control and the normal control was measured.
# Using SoftMax Pro software, the activity of PON1 was calculated from the absorbance using the following Equation 1, and the results are shown in Table 1 below.
# Activity=(absorbancesample−absorbanceblank)/(absorbancePON1−absorbanceblank)*100 [Equation 1]
# BV2 cells [7] = experiment: Transcription of NF-κB protein (p65, p50) into nucleus after LPS (Western blot); type: cell-based; conditions: 3 h pretreatment (Table 3 amounts), LPS 1 μg/ml 1 h
# Procedure: as §1, §2, §5
# RAW264.7 cells [8] = experiment: iNOS and COX-2 expression after LPS (Western blot); type: cell-based; conditions: 3 h pretreatment (Table 3 amounts), LPS 1 μg/ml 24 h
# Procedure: as §1, §2, §4
# BV2 cells [9] = experiment: iNOS and COX-2 expression after LPS (Western blot); type: cell-based; conditions: 3 h pretreatment (Table 3 amounts), LPS 1 μg/ml 24 h
# Procedure: as §1, §2, §4
structure (smiles),measurement,setting,value
"CCCc1ccc([C@H]2COc3c(ccc4c3CCC(C)(C)O4)C2)c(O)c1 [Formula V-3, (S)-2-(8,8-dimethyl-2,3,4,8,9,10-hexahydropyrano[2,3-f]chromen-3-yl)-5-propylphenol]",mRNA expression level of IL-1β,RAW264.7 cells [1],concentration-dependently decreased
same,mRNA expression level of IL-6,RAW264.7 cells [1],concentration-dependently decreased
same,mRNA expression level of TNF-α,RAW264.7 cells [1],concentration-dependently decreased
same,mRNA expression level of IL-1β,BV2 cells [2],concentration-dependently decreased
same,mRNA expression level of IL-6,BV2 cells [2],concentration-dependently decreased
same,mRNA expression level of TNF-α,BV2 cells [2],concentration-dependently decreased
same,production of NO,RAW264.7 cells [3],concentration-dependently decreased
same,production of PGE2,RAW264.7 cells [3],concentration-dependently decreased
same,production of NO,BV2 cells [4],concentration-dependently decreased
same,production of PGE2,BV2 cells [4],concentration-dependently decreased
same,"level of transcription of NF-κB protein into the nucleus, p50",RAW264.7 cells [5],concentration-dependently decreased
same,"level of transcription of NF-κB protein into the nucleus, p65",RAW264.7 cells [5],concentration-dependently decreased
same,activity at 30 µM,[6],95.1%
same,"extent to which inhibition of rePON1 activity was prevented, compared with glabridin",[6],greater
same,inhibition of rePON1 activity by oxidized linolenic acid,[6],prevented
same,"level of transcription of NF-κB protein into the nucleus, p50",BV2 cells [7],concentration-dependently decreased
same,"level of transcription of NF-κB protein into the nucleus, p65",BV2 cells [7],concentration-dependently decreased
same,expression level of COX-2,RAW264.7 cells [8],concentration-dependently decreased
same,expression level of iNOS,RAW264.7 cells [8],concentration-dependently decreased
same,expression level of COX-2,BV2 cells [9],concentration-dependently decreased
same,expression level of iNOS,BV2 cells [9],concentration-dependently decreased
"CCCc1ccc([C@@H]2COc3c(ccc4c3CCC(C)(C)O4)C2)c(O)c1 [Formula IV-3, (R)-2-(8,8-dimethyl-2,3,4,8,9,10-hexahydropyrano[2,3-f]chromen-3-yl)-5-propylphenol]",activity at 30 µM,[6],90.6%
same,"extent to which inhibition of rePON1 activity was prevented, compared with glabridin",[6],greater
same,inhibition of rePON1 activity by oxidized linolenic acid,[6],prevented
"CCOc1cc(O)ccc1C1COc2c(ccc3c2CCC(C)(C)O3)C1 (stereo not drawn) [Formula III-2, 4-(8,8-dimethyl-2,3,4,8,9,10-hexahydropyrano[2,3-f]chromen-3-yl)-3-ethoxyphenol]",activity at 30 µM,[6],83.8%
same,"extent to which inhibition of rePON1 activity was prevented, compared with glabridin",[6],greater
same,inhibition of rePON1 activity by oxidized linolenic acid,[6],prevented
"CC1(C)C=Cc2c(ccc3c2OCC(c2ccc(O)cc2O)=C3)O1 [Formula II-1, 4-(8,8-dimethyl-2,8-dihydropyrano[2,3-f]chromen-3-yl)benzene-1,3-diol]",activity at 30 µM,[6],85.9%
same,"extent to which inhibition of rePON1 activity was prevented, compared with glabridin",[6],greater
same,inhibition of rePON1 activity by oxidized linolenic acid,[6],prevented
"CCCCOc1ccc([C@@H]2COc3c(ccc4c3CCC(C)(C)O4)C2)c(O)c1 [Formula IV-4, (R)-2-(8,8-dimethyl-2,3,4,8,9,10-hexahydropyrano[2,3-f]chromen-3-yl)-5-butoxyphenol]",activity at 30 µM,[6],94.1%
same,"extent to which inhibition of rePON1 activity was prevented, compared with glabridin",[6],greater
same,inhibition of rePON1 activity by oxidized linolenic acid,[6],prevented
"CCCc1ccc(C2COc3c(ccc4c3CCC(C)(C)O4)C2)c(O)c1 (stereo not drawn) [Formula III-4, 2-(8,8-dimethyl-2,3,4,8,9,10-hexahydropyrano[2,3-f]chromen-3-yl)-5-propylphenol]",mRNA expression level of IL-1β,RAW264.7 cells [1],concentration-dependently decreased
same,mRNA expression level of IL-6,RAW264.7 cells [1],concentration-dependently decreased
same,mRNA expression level of TNF-α,RAW264.7 cells [1],concentration-dependently decreased
same,mRNA expression level of IL-1β,BV2 cells [2],concentration-dependently decreased
same,mRNA expression level of IL-6,BV2 cells [2],concentration-dependently decreased
same,mRNA expression level of TNF-α,BV2 cells [2],concentration-dependently decreased
same,production of NO,RAW264.7 cells [3],concentration-dependently decreased
same,production of PGE2,RAW264.7 cells [3],concentration-dependently decreased
same,production of NO,BV2 cells [4],concentration-dependently decreased
same,production of PGE2,BV2 cells [4],concentration-dependently decreased
same,"level of transcription of NF-κB protein into the nucleus, p50",RAW264.7 cells [5],concentration-dependently decreased
same,"level of transcription of NF-κB protein into the nucleus, p65",RAW264.7 cells [5],concentration-dependently decreased
same,"level of transcription of NF-κB protein into the nucleus, p50",BV2 cells [7],concentration-dependently decreased
same,"level of transcription of NF-κB protein into the nucleus, p65",BV2 cells [7],concentration-dependently decreased
same,expression level of COX-2,RAW264.7 cells [8],concentration-dependently decreased
same,expression level of iNOS,RAW264.7 cells [8],concentration-dependently decreased
same,expression level of COX-2,BV2 cells [9],concentration-dependently decreased
same,expression level of iNOS,BV2 cells [9],concentration-dependently decreased
"CCCCOc1ccc([C@H]2COc3c(ccc4c3CCC(C)(C)O4)C2)c(O)c1 [Formula V-4, (S)-2-(8,8-dimethyl-2,3,4,8,9,10-hexahydropyrano[2,3-f]chromen-3-yl)-5-butoxyphenol]",activity at 30 µM,[6],94.9%
same,"extent to which inhibition of rePON1 activity was prevented, compared with glabridin",[6],greater
same,inhibition of rePON1 activity by oxidized linolenic acid,[6],prevented
